Test results reported in publication PMC8333425, “Discovery of a dual Ras and ARF6 inhibitor from a GPCR endocytosis screen” (Nature Communications, 2021).
pIC50: −log10 of the molar value.

Tested on: β2AR
Test: Endosomal BRET assay of isoproterenol-mediated β2AR internalization
Assay type: cell-based, human
Source text: We performed a HT campaign in HEK293 cells using the bystander endosomal BRET sensor, which consists of a Renilla luciferase (RlucII)-tagged AT1R and an acceptor renilla GFP (rGFP) anchored to endosomes through an Endofin-FYVE (Endo-rGFP) domain[12]. AngII-mediated trafficking of AT1R to endosomes was screened against commercial libraries of ~115,000 small molecules (Fig. 1a and Supplementary Data 1). Because our assay is based on luminescence and fluorescence, we excluded 6610 compounds that quenched more than 50% of the luciferase or GFP signals. After excluding 5 AT1R antagonists, we conserved hit compounds blocking by more than 40%, as well as those potentiating by more than 100% receptor internalization. From this collection of 943 compounds, a second validation on AT1R internalization was performed using the same BRET assay, as well as on the agonist-mediated B2R internalization, this time using B2R-RlucII and Endo-rGFP. Only compounds that were revalidated on AT1R and affected B2R endocytosis were kept, which included forty hits (20 potentiators and 20 inhibitors) (Fig. 1b and Supplementary Data 2). We focused on inhibitors that were commercially available at the beginning of the project and tested their cell toxicity by microscopy, looking at cells expressing B2R tagged with YFP, which highlights cell contours and potential morphological changes, such as rounding up of cells following treatment with 50 μM of the compounds that may have indicated cell death. None of the inhibitors tested caused abnormal cell morphological changes when cells were treated with compounds as compared to DMSO-treated cells. Inhibitors were also assessed in terms of structure novelty, derivatization potential, and commercial availability of analogs (within 95–98% similarity from Tanimoto metric, Sci-Finder, https://scifinder-n.cas.org), for structure-activity relationship studies (SAR). They were scored 1–5, from best to worst. We excluded compounds with potential nucleophilic reactivity (e.g., Michael addition: compounds 7, 26, and 27), those reported to have biological activities (compounds 8, 20, 25, 30, and 35) and/or showing autofluorescence (compound 26). Compound 19 ranked high, but only had one other molecule with a similar structure available. Although other molecules could be interesting in their own rights as endocytosis inhibitors (e.g., compounds 1, 9, 11, 12, 13, 24, 31, and 37), we focused on compound 21 (Fig. 1c) because not only did it rank high in our analysis, but it was also the only compound with substantially more similar analogs commercially available at the time of these investigations. In the screen and the follow-up validation assay, 21 inhibited more than 50% AT1R internalization and more than 65% B2R internalization (Supplementary Data 2). […] Because β-arrestins are critically involved in GPCR endocytosis and trafficking in cells, we assessed 21’s effects on β-arrestins’ recruitment to AT1R and B2R at the PM using a BRET assay, as well as their trafficking into endosomes by microscopy.
HEK293SL cells were seeded at a density of 7.5 × 10^5 cells per 100-mm dish and 24 h later, transiently transfected as such. For receptor internalization experiments, cells were transfected with 0.12 μg AT1R-RlucII, B2R-RlucII, or β2AR-RlucII and 0.48 μg of either rGFP-CAAX (to assess removal from the PM) or rGFP-FYVE (to assess accumulation in the endosomes). For β-arrestin recruitment assays, cells were transfected with 0.48 μg of receptor-YFP along with 0.12 μg of β-arrestin-RlucII. For β-arrestin/AP-2 binding experiments, cells were transfected with 1 μg Flag-AT1R, 1 μg β2-Adaptin-YFP, and 0.12 μg β-arrestin2-RlucII. For G protein activation, cells were transfected with 3 μg of sp-Flag-AT1R along with either 4.5 μg of the Gαq-polycistronic BRET sensor or 0.24 μg of the Gαi3-RlucII and 0.6 μg of GFP10-Gγ2 and Gβ1 sensors or 0.12 μg PKN-RBD-RlucII and 0.48 μg of rGFP-CAAX. […]

**Q.** With `CC(C)C(=O)N1CCN(c2ccc(NC(=O)c3cc4ccccc4o3)cc2Cl)CC1` [Compound 21] as the compound, how does the pIC50 (Homo sapiens, read-out: IC50 for inhibition of isoproterenol-mediated β2AR internalization into endosomes) read?
**A.** The pIC50 was 4.82.

**Q.** What about the “β2AR internalization into endosomes, ligand-promoted BRET (Mean)” value (from here on “β2AR internalization into endosomes”) (Log [Comp21] (M) -4.3) of the same compound?
**A.** Its value is 36.2133 percent compared to DMSO.

**Q.** What about the “β2AR internalization into endosomes” value (Log [Comp21] (M) -4.6) of the same compound?
**A.** The value was 48.1993 percent compared to DMSO.

**Q.** And the “β2AR internalization into endosomes” value (Log [Comp21] (M) -5)?
**A.** The value was 64.3705 percent compared to DMSO.

**Q.** What about the “β2AR internalization into endosomes” value (Log [Comp21] (M) -5.3) of the same compound?
**A.** The value was 89.3672 percent compared to DMSO.

**Q.** What about the “β2AR internalization into endosomes” value (Log [Comp 21] (M) -6) of the same compound?
**A.** The value was 95.9498 percent compared to DMSO.

**Q.** And the “β2AR internalization into endosomes” value (Log [Comp21] (M) -6.3)?
**A.** Its value is 95.3626 percent compared to DMSO.

**Q.** And the “β2AR internalization into endosomes” value (Log [Comp 21] (M) -7)?
**A.** The value was 95.4832 percent compared to DMSO.
